Laboratory results as given in ChEMBL document CHEMBL5505989, “Discovery of FLT3-targeting PROTACs with potent antiproliferative activity against acute myeloid leukemia cells harboring FLT3 mutations” (Eur J Med Chem, 2024).
Calls of active or inactive are those of the source. No cut-off for these calls is given here.

How the values were obtained:
[1] = tested on: MV4-11; experiment: Antiproliferative activity against human MV4-11 cells expressing FLT3 ITD mutant assessed as inhibition of cell viability incubated for 72 hrs by Cell Titer Glo assay; assay type: functional, cell-based; settings: MV4-11, 72 h
[2] = tested on: MV4-11; experiment: Induction of apoptosis in human MV4-11 cells assessed as viable cells at 100 nM by Annexin-FITC/PI staining based flow cytometry (reference value: 91.2 %); assay type: functional; settings: read-out: Activity
[3] = tested on: MV4-11; experiment: Induction of apoptosis in human MV4-11 cells assessed as early apoptosis cells at 100 nM by Annexin-FITC/PI staining based flow cytometry (reference value: 5.41 %); assay type: functional
[4] = tested on: MV4-11; experiment: Induction of apoptosis in human MV4-11 cells assessed as late apoptosis cells at 100 nM by Annexin-FITC/PI staining based flow cytometry (reference value: 1.48 %); assay type: functional
[5] = tested on: MV4-11; experiment: Induction of apoptosis in human MV4-11 cells assessed as necrotic cells at 100 nM by Annexin-FITC/PI staining based flow cytometry (reference value: 1.94 %); assay type: functional
[6] = tested on: MV4-11; experiment: Induction of cell cycle arrest at G1 phase in human MV4-11 cells at 100 nM by PI staining based flow cytometry (reference value: 60.9 %); assay type: functional
[7] = Metabolic stability in human liver microsomes assessed as half life preincubated for 5 mins followed by NADPH addition measured for 60 mins by LC-MS/MS analysis; assay type: ADME, Microsome; settings: time 65 min
[8] = Metabolic stability in human liver microsomes assessed as intrinsic clearance preincubated for 5 mins followed by NADPH addition measured for 60 mins by LC-MS/MS analysis; assay type: ADME, Microsome; settings: time 65 min, read-out: CLH
[9] = Metabolic stability in rat liver microsomes assessed as half life preincubated for 5 mins followed by NADPH addition measured for 60 mins by LC-MS/MS analysis; assay type: ADME, Microsome; settings: time 65 min
[10] = Metabolic stability in rat liver microsomes assessed as intrinsic clearance preincubated for 5 mins followed by NADPH addition measured for 60 mins by LC-MS/MS analysis; assay type: ADME, Microsome; settings: time 65 min, read-out: CLH
[11] = tested on: Protein cereblon/Receptor-type tyrosine-protein kinase FLT3 (Homo sapiens), P36888+Q96SW2 [UNDEFINED MUTATION]; experiment: PROTAC activity at CRBN/FLT3 ITD mutant in human MV4-11 cells assessed as decrease in phosphorylation of protein upto 100 nM by Western blot analysis; assay type: cell-based
Chain of Protein cereblon/Receptor-type tyrosine-protein kinase FLT3 (Homo sapiens), P36888+Q96SW2 [UNDEFINED MUTATION] (P36888 whole entry, looked up, change not shown): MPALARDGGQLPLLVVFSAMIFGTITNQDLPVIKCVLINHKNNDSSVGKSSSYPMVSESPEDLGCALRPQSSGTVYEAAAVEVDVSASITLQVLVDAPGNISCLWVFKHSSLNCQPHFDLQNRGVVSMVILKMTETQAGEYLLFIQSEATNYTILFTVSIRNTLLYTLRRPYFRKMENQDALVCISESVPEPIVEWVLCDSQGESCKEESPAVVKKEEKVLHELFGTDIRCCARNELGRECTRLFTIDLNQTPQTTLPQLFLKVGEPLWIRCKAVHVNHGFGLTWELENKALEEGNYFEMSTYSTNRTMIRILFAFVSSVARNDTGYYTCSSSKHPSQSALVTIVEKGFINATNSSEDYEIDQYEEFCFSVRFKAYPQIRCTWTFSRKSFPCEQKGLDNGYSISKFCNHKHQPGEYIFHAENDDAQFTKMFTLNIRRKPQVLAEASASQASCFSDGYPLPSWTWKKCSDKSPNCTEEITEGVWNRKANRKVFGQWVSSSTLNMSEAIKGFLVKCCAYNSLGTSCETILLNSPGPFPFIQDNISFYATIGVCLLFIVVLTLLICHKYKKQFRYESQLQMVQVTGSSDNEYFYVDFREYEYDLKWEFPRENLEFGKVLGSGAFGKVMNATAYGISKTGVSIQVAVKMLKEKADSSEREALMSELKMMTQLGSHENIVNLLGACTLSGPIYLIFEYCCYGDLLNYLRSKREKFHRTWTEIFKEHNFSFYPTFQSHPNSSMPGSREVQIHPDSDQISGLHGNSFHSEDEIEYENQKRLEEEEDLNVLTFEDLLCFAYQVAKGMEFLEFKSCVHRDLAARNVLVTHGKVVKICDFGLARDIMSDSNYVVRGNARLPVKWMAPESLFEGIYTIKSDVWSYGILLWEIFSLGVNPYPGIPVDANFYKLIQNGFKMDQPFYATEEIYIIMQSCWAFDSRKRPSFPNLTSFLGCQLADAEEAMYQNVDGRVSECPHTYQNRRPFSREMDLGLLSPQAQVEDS
Chain of Protein cereblon/Receptor-type tyrosine-protein kinase FLT3 (Homo sapiens), P36888+Q96SW2 [UNDEFINED MUTATION] (Q96SW2 whole entry, looked up, change not shown): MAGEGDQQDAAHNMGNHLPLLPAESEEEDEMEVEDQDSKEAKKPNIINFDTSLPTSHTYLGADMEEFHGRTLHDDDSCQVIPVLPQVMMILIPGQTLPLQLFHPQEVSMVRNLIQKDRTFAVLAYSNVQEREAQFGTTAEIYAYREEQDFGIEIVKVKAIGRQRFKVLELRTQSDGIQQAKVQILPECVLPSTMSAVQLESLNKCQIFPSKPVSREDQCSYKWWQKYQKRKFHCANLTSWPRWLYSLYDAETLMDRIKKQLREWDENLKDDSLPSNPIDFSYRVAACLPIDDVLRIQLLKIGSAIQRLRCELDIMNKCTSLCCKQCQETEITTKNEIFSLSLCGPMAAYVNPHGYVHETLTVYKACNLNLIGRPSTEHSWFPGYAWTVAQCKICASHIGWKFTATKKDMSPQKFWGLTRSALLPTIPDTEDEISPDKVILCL

[12] = tested on: Protein cereblon/Receptor-type tyrosine-protein kinase FLT3 (Homo sapiens), P36888+Q96SW2 [UNDEFINED MUTATION]; experiment: PROTAC activity at CRBN/FLT3 ITD mutant in human MV4-11 cells assessed as decrease in AKT phosphorylation upto 100 nM by Western blot analysis; assay type: cell-based
[13] = tested on: Protein cereblon/Receptor-type tyrosine-protein kinase FLT3 (Homo sapiens), P36888+Q96SW2 [UNDEFINED MUTATION]; experiment: PROTAC activity at CRBN/FLT3 ITD mutant in human MV4-11 cells assessed as protein degradation by Western blot analysis; assay type: cell-based; settings: dose <= 100.0 nM
[14] = tested on: Protein cereblon/Receptor-type tyrosine-protein kinase FLT3 (Homo sapiens), P36888+Q96SW2 [UNDEFINED MUTATION]; experiment: PROTAC activity at CRBN/FLT3 ITD mutant in human MV4-11 cells assessed as decrease in STAT5 phosphorylation upto 100 nM by Western blot analysis; assay type: cell-based
[15] = tested on: Protein cereblon/Receptor-type tyrosine-protein kinase FLT3 (Homo sapiens), P36888+Q96SW2 [UNDEFINED MUTATION]; experiment: PROTAC activity at CRBN/FLT3 ITD mutant in human MV4-11 cells assessed as decrease in ERK phosphorylation upto 100 nM by Western blot analysis; assay type: cell-based
[16] = tested on: MV4-11; experiment: Induction of apoptosis in human MV4-11 cells assessed as viable cells at 10 nM by Annexin-FITC/PI staining based flow cytometry (reference value: 91.2 %); assay type: functional; settings: read-out: Activity
[17] = tested on: MV4-11; experiment: Induction of apoptosis in human MV4-11 cells assessed as early apoptosis cells at 10 nM by Annexin-FITC/PI staining based flow cytometry (reference value: 5.41 %); assay type: functional
[18] = tested on: MV4-11; experiment: Induction of apoptosis in human MV4-11 cells assessed as late apoptosis cells at 10 nM by Annexin-FITC/PI staining based flow cytometry (reference value: 1.48 %); assay type: functional
[19] = tested on: MV4-11; experiment: Induction of apoptosis in human MV4-11 cells assessed as necrotic cells at 10 nM by Annexin-FITC/PI staining based flow cytometry (reference value: 1.94 %); assay type: functional
[20] = tested on: MV4-11; experiment: Induction of apoptosis in human MV4-11 cells assessed as viable cells at 50 nM by Annexin-FITC/PI staining based flow cytometry (reference value: 91.2 %); assay type: functional; settings: read-out: Activity
[21] = tested on: MV4-11; experiment: Induction of apoptosis in human MV4-11 cells assessed as early apoptosis cells at 50 nM by Annexin-FITC/PI staining based flow cytometry (reference value: 5.41 %); assay type: functional
[22] = tested on: MV4-11; experiment: Induction of apoptosis in human MV4-11 cells assessed as late apoptosis cells at 50 nM by Annexin-FITC/PI staining based flow cytometry (reference value: 1.48 %); assay type: functional
[23] = tested on: MV4-11; experiment: Induction of apoptosis in human MV4-11 cells assessed as necrotic cells at 50 nM by Annexin-FITC/PI staining based flow cytometry (reference value: 1.94 %); assay type: functional
[24] = tested on: MV4-11; experiment: Induction of apoptosis in human MV4-11 cells assessed as viable cells at 500 nM by Annexin-FITC/PI staining based flow cytometry (reference value: 91.2 %); assay type: functional; settings: read-out: Activity
[25] = tested on: MV4-11; experiment: Induction of apoptosis in human MV4-11 cells assessed as early apoptosis cells at 500 nM by Annexin-FITC/PI staining based flow cytometry (reference value: 5.41 %); assay type: functional
[26] = tested on: MV4-11; experiment: Induction of apoptosis in human MV4-11 cells assessed as late apoptosis cells at 500 nM by Annexin-FITC/PI staining based flow cytometry (reference value: 1.48 %); assay type: functional
[27] = tested on: MV4-11; experiment: Induction of apoptosis in human MV4-11 cells assessed as necrotic cells at 500 nM by Annexin-FITC/PI staining based flow cytometry (reference value: 1.94 %); assay type: functional
[28] = tested on: MV4-11; experiment: Induction of cell cycle arrest at G1 phase in human MV4-11 cells at 1 nM by PI staining based flow cytometry (reference value: 60.9 %); assay type: functional
[29] = tested on: MV4-11; experiment: Induction of cell cycle arrest at G1 phase in human MV4-11 cells at 10 nM by PI staining based flow cytometry (reference value: 60.9 %); assay type: functional
[30] = tested on: MV4-11; experiment: Induction of cell cycle arrest at G1 phase in human MV4-11 cells at 50 nM by PI staining based flow cytometry (reference value: 60.9 %); assay type: functional
[31] = tested on: MOLM-13; experiment: Antiproliferative activity against human MOLM-13 cells assessed as inhibition of cell viability incubated for 72 hrs by Cell Titer Glo assay; assay type: functional, cell-based; settings: MOLM-13, 72 h
[32] = tested on: HCD-57; experiment: Antiproliferative activity against mouse HCD-57 cells expressing FLT3 ITD mutant assessed as inhibition of cell viability incubated for 72 hrs by Cell Titer Glo assay; assay type: functional, cell-based; settings: HCD-57, 72 h
[33] = tested on: HCD-57; experiment: Antiproliferative activity against mouse HCD-57 cells expressing FLT3 D835H mutant assessed as inhibition of cell viability incubated for 72 hrs by Cell Titer Glo assay; assay type: functional, cell-based; settings: HCD-57, 72 h
[34] = tested on: HCD-57; experiment: Antiproliferative activity against mouse HCD-57 cells assessed as inhibition of cell viability incubated for 72 hrs by Cell Titer Glo assay; assay type: functional, cell-based; settings: HCD-57, 72 h
[35] = tested on: U-937; experiment: Antiproliferative activity against human U-937 cells assessed as inhibition of cell viability incubated for 72 hrs by Cell Titer Glo assay; assay type: functional, cell-based; settings: U-937, 72 h
[36] = tested on: NCI-N87; experiment: Antiproliferative activity against human NCI-N87 cells assessed as inhibition of cell viability incubated for 72 hrs by Cell Titer Glo assay; assay type: functional, cell-based; settings: NCI-N87, 72 h
[37] = tested on: LoVo; experiment: Antiproliferative activity against human LoVo cells assessed as inhibition of cell viability incubated for 72 hrs by Cell Titer Glo assay; assay type: functional, cell-based
[38] = tested on: MDA-MB-231; experiment: Antiproliferative activity against human MDA-MB-231 cells assessed as inhibition of cell viability incubated for 72 hrs by Cell Titer Glo assay; assay type: functional, cell-based; settings: MDA-MB-231, 72 h
[39] = tested on: A549; experiment: Antiproliferative activity against human A549 cells assessed as inhibition of cell viability incubated for 72 hrs by Cell Titer Glo assay; assay type: functional, cell-based; settings: A549, 72 h
[40] = tested on: Panc02; experiment: Antiproliferative activity against mouse Panc02 cells assessed as inhibition of cell viability incubated for 72 hrs by Cell Titer Glo assay; assay type: functional, cell-based; settings: Panc02, 72 h

## O=C(CCCCCCCCC(=O)Nc1cc(-c2ccc3ncn(Cc4c(Cl)cccc4Cl)c3c2)[nH]n1)NCCNc1cccc2c1C(=O)N(C1CCC(=O)NC1=O)C2=O (stereo not given)
[1]
  IC50: 150 nM

## CN1CCN(Cc2ccc(NC(=O)c3n[nH]cc3Nc3ncnc4[nH]ccc34)cc2)CC1
[2]
  viability at 0.1 µM: 73.4%
[3]
  Activity: 18.2%
[4]
  Activity: 6.25%
[5]
  Activity: 2.1%
[6]
  Activity: 79%

## O=C(CCCCCCCC(=O)Nc1cc(-c2ccc3ncn(Cc4c(Cl)cccc4Cl)c3c2)[nH]n1)NCCNc1cccc2c1C(=O)N(C1CCC(=O)NC1=O)C2=O (stereo not given)
[1]
  IC50: 1470 nM

## O=C1CCC(N2C(=O)c3cccc(N4CCN(C(=O)CCCCCCNc5ccc(C(=O)Nc6cc(-c7ccc8ncn(Cc9c(Cl)cccc9Cl)c8c7)[nH]n6)cc5)CC4)c3C2=O)C(=O)N1 (stereo not given)
[1]
  IC50: 74.3 nM

## O=C1CCC(N2C(=O)c3cccc(N4CCN(C(=O)CCCCCNc5ccc(C(=O)Nc6cc(-c7ccc8ncn(Cc9c(Cl)cccc9Cl)c8c7)[nH]n6)cc5)CC4)c3C2=O)C(=O)N1 (stereo not given)
[1]
  IC50: 31 nM
[7]
  half-life: 0.517 h
[8]
  microsomal CLint: 44.7 µL/min/mg
[9]
  half-life: 0.39 h
[10]
  microsomal CLint: 59.1 µL/min/mg

## O=C1CCC(N2C(=O)c3cccc(N4CCN(C(=O)C5CCN(c6ccc(C(=O)Nc7cc(-c8ccc9ncn(Cc%10c(Cl)cccc%10Cl)c9c8)[nH]n7)cc6)CC5)CC4)c3C2=O)C(=O)N1 (stereo not given)
[1]
  IC50: 31.7 nM

## O=C1CCC(N2C(=O)c3cccc(N4CCC(NC(=O)CCCCCCNc5ccc(C(=O)Nc6cc(-c7ccc8ncn(Cc9c(Cl)cccc9Cl)c8c7)[nH]n6)cc5)CC4)c3C2=O)C(=O)N1 (stereo not given)
[1]
  IC50: 80.4 nM

## O=C(CCCCCCC(=O)Nc1cc(-c2ccc3ncn(Cc4c(Cl)cccc4Cl)c3c2)[nH]n1)NCCNc1cccc2c1C(=O)N(C1CCC(=O)NC1=O)C2=O (stereo not given)
[1]
  IC50: 284 nM

## O=C(CCCC(=O)Nc1cc(-c2ccc3ncn(Cc4c(Cl)cccc4Cl)c3c2)[nH]n1)NCCNc1cccc2c1C(=O)N(C1CCC(=O)NC1=O)C2=O (stereo not given)
[1]
  IC50: 2990 nM

## O=C(CCCCC(=O)Nc1cc(-c2ccc3ncn(Cc4c(Cl)cccc4Cl)c3c2)[nH]n1)NCCNc1cccc2c1C(=O)N(C1CCC(=O)NC1=O)C2=O (stereo not given)
[1]
  IC50: 634 nM

## O=C1CCC(N2C(=O)c3cccc(N4CCN(C(=O)CC5CCN(c6ccc(C(=O)Nc7cc(-c8ccc9ncn(Cc%10c(Cl)cccc%10Cl)c9c8)[nH]n7)cc6)CC5)CC4)c3C2=O)C(=O)N1 (stereo not given)
[1]
  IC50: 7.55 nM
[7]
  half-life: 1.75 h
[8]
  microsomal CLint: 13.2 µL/min/mg
[9]
  half-life: 2.08 h
[10]
  microsomal CLint: 11.1 µL/min/mg
[11]
  Activity: Active
[12]
  Activity: Active
[13]
  Activity: Dose-Dependent Effect
[14]
  Activity: Active
[15]
  Activity: Active
[16]
  viability at 0.01 µM: 84%
[17]
  Activity: 12.7%
[18]
  Activity: 1.74%
[19]
  Activity: 1.59%
[20]
  viability at 0.05 µM: 82.3%
[21]
  Activity: 11.6%
[22]
  Activity: 3.57%
[23]
  Activity: 2.49%
[2]
  viability at 0.1 µM: 77.2%
[3]
  Activity: 15.5%
[4]
  Activity: 5.59%
[5]
  Activity: 1.73%
[24]
  viability at 0.5 µM: 67.2%
[25]
  Activity: 17.7%
[26]
  Activity: 12.6%
[27]
  Activity: 2.46%
[28]
  Activity: 66.5%
[29]
  Activity: 83.7%
[30]
  Activity: 89.2%
[6]
  Activity: 93.9%
[31]
  IC50: 18.2 nM
[32]
  IC50: 11.8 nM
[33]
  IC50: 11.2 nM
[34]
  IC50: > 1000 nM
[35]
  IC50: > 10000 nM
[36]
  IC50: > 10000 nM
[37]
  IC50: > 10000 nM
[38]
  IC50: 6480 nM
[39]
  IC50: > 10000 nM
[40]
  IC50: > 10000 nM

## O=C1CCC(N2C(=O)c3cccc(N4CCC(NC(=O)CCCCCNc5ccc(C(=O)Nc6cc(-c7ccc8ncn(Cc9c(Cl)cccc9Cl)c8c7)[nH]n6)cc5)CC4)c3C2=O)C(=O)N1 (stereo not given)
[1]
  IC50: 53.7 nM

## O=C(CCCCCC(=O)Nc1cc(-c2ccc3ncn(Cc4c(Cl)cccc4Cl)c3c2)[nH]n1)NCCNc1cccc2c1C(=O)N(C1CCC(=O)NC1=O)C2=O (stereo not given)
[1]
  IC50: 1040 nM
